In patent publication US20260265246A1 (ICAHN SCHOOL OF MEDICINE AT MOUNT SINAI, priority 2021, published 2026):
Like-named read-outs stand apart in the source and are kept apart here.

Key:
5HT2A receptor [1] = target: T1, 5HT2A receptor (Homo sapiens, UniProt P28223); experiment: biochemical; assay type: binding; parameters: expressed in transfected cells; crude membranes
5HT2A receptor [2] = target: T1, 5HT2A receptor; experiment: cell-based; parameters: expressed in transfected cells; host or cells: HEK293T cells, transient co-transfection; conditions: for Emax: HEK-293T
5HT2A receptor [3] = target: T1, 5HT2A receptor; experiment: cell-based; parameters: expressed in transfected cells; host or cells: HEK293T cells, transient co-transfection; conditions: for Emax: HEK-293T; remark: listed apart in the source
[4] = 5HT2A Ki (nM), secondary radioligand binding, Ki from IC50 by Cheng-Prusoff
[5] = 5HT2A β-Arr EC50 (nM), BRET1 beta-arrestin2 recruitment, HEK293T cells
[6] = BRET1 beta-arrestin2 recruitment, HEK293T cells, normalized to 5-HT, read-out: 5HT2A β-Arr Emax (%)
[7] = BRET2 Gαq dissociation, HEK293T cells, read-out: 5HT2A Gq EC50
[8] = BRET2 Gαq dissociation, HEK293T cells, normalized to 5-HT, read-out: 5HT2A Gq Emax (%)
[9] = secondary binding assay, Cheng-Prusoff, read-out: 5HT2A Ki
[10] = 5HT2A β-Arr EC50 (nM), BRET1 beta-arrestin2 recruitment, HEK293T
[11] = BRET1 beta-arrestin2 recruitment, HEK293T, normalized to 5-HT, read-out: 5HT2A β-Arr Emax (%)
[12] = BRET2 Gαq dissociation, HEK293T, read-out: 5HTA Gq EC50
[13] = 5HT2A Ki (nM), secondary binding assay, Cheng-Prusoff
[14] = 5HTA Gq EC50 (nM), BRET2 Gαq dissociation, HEK293T
[15] = BRET2 Gαq dissociation, HEK293T, normalized to 5-HT, read-out: 5HTA Gq Emax (%)
[16] = 5HT2A Gq EC50 (nM), BRET2 Gαq dissociation, HEK293T cells
[17] = BRET1 beta-arrestin2 recruitment, HEK293T, read-out: 5HT2A β-Arr EC50
[18] = secondary radioligand binding, Ki from IC50 by Cheng-Prusoff, read-out: 5HT2A Ki
[19] = BRET1 beta-arrestin2 recruitment, HEK293T cells, read-out: 5HT2A β-Arr EC50
[20] = read-out: 5HT2A β-Arr Emax (%), BRET1 beta-arrestin2 recruitment, HEK293T, normalized to 5-HT
[21] = read-out: 5HTA Gq Emax (%), BRET2 Gαq dissociation, HEK293T, normalized to 5-HT

T1 sequence (P28223 whole entry): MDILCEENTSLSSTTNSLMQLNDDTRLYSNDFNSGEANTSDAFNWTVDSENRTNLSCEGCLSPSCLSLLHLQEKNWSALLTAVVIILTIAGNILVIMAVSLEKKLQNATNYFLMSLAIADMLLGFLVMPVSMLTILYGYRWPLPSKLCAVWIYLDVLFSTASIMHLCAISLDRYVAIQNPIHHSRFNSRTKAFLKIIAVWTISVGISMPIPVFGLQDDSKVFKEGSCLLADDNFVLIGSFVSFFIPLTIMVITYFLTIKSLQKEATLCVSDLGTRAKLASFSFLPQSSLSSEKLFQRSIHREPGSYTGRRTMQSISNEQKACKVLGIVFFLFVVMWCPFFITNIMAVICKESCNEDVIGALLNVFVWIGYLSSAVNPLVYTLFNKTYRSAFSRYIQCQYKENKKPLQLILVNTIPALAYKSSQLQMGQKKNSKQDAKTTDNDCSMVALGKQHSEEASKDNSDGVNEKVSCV

| SMILES | Ki (5HT2A receptor [1]; [4]) | EC50 (5HT2A receptor [2]; [5]) | Emax (5HT2A receptor [2]; [6]) | Emax (5HT2A receptor [3]; [8]) | EC50 (5HT2A receptor [2]; [10]) | Emax (5HT2A receptor [2]; [11]) | Ki (5HT2A receptor [1]; [13]) | EC50 (5HT2A receptor [3]; [14]) | Emax (5HT2A receptor [3]; [15]) | further results |
| --- | --- | --- | --- | --- | --- | --- | --- | --- | --- | --- |
| C#CCN1CCC=C(c2n[nH]c3c(Cl)cccc23)C1 [Example 125, 7-chloro-3-(1-(prop-2-yn-1-yl)-1,2,5,6-tetrahydropyridin-3-yl)-1H-indazole] | 1970 nM | 291 nM | 63.3% | 93.5% | – | – | – | – | – | EC50 (5HT2A receptor [3]; [7]): 75 nM |
| Clc1cccc2c(C34CNCC3C4)c[nH]c12 (single isomer, unassigned) [Example 277, 3-(3-azabicyclo[3.1.0]hexan-1-yl)-7-chloro-1H-indole] | – | – | – | – | 212 nM | 25.4% | – | – | – | Ki (5HT2A receptor [1]; [9]): 80.5 nM; 5HTA Gq Emax (%) (5HT2A receptor [3]; BRET2 Gαq dissociation, HEK293T, normalized to 5-HT): 86.5%; EC50 (5HT2A receptor [3]; [12]): 83.8 nM |
| N#Cc1cccc2c(C34CNCC3C4)n[nH]c12 (stereo not shown) [Example 184, 3-(3-azabicyclo[3.1.0]hexan-1-yl)-1H-indazole-7-carbonitrile] | – | – | – | – | 1970 nM | 68.2% | 5680 nM | 423 nM | 103% | – |
| Cc1cccc2c(C34CNCC3C4)c[nH]c12 (stereo not shown) [Example 272, 3-(3-azabicyclo[3.1.0]hexan-1-yl)-7-methyl-1H-indole] | – | – | – | – | 1500 nM | 38% | 890 nM | 100 nM | 89.5% | – |
| CN1CCC=C(c2c[nH]c3ncc(Cl)cc23)C1 [Example 7, 5-chloro-3-(1-methyl-1,2,5,6-tetrahydropyridin-3-yl)-1H-pyrrolo[2,3-b]pyridine] | 209 nM | 18.7 nM | 20.7% | 73.4% | – | – | – | – | – | EC50 (5HT2A receptor [3]; [16]): 56.9 nM |
| CN1CC(c2c[nH]c3c(Cl)cccc23)C1 [Example 256, 7-chloro-3-(1-methylazetidin-3-yl)-1H-indole] | – | – | – | – | 1000 nM | 31.7% | 2010 nM | 367 nM | 97.5% | – |
| CCN1CCC=C(c2n[nH]c3c(Cl)cccc23)C1 [Example 145, 7-chloro-3-(1-ethyl-1,2,5,6-tetrahydropyridin-3-yl)-1H-indazole] | – | – | – | – | – | 42.4% | 123 nM | – | 64.4% | EC50 (5HT2A receptor [2]; [17]): 77 nM; EC50 (5HT2A receptor [3]; [12]): 23.3 nM |
| COc1cccc2[nH]cc(C3=CCCN(C)C3)c12 [Example 20, 4-methoxy-3-(1-methyl-1,2,5,6-tetrahydropyridin-3-yl)-1H-indole] | – | – | 47.7% | 91% | – | – | – | – | – | Ki (5HT2A receptor [1]; [18]): 60 nM; EC50 (5HT2A receptor [2]; [19]): 61.8 nM; EC50 (5HT2A receptor [3]; [7]): 3 nM |
| [2H]C([2H])([2H])N1CCC=C(c2n[nH]c3c(Cl)cccc23)C1 [Example 150, 7-chloro-3-(1-(methyl-d3)-1,2,5,6-tetrahydropyridin-3-yl)-1H-indazole] | – | – | – | – | 29.9 nM | – | 842 nM | 13.3 nM | – | Emax (5HT2A receptor [2]; [20]): 60.9%; Emax (5HT2A receptor [3]; [21]): 95.3% |
| Fc1ccc2c(C3=CCCNC3)n[nH]c2c1 [Example 78, 6-fluoro-3-(1,2,5,6-tetrahydropyridin-3-yl)-1H-indazole] | – | – | 59.4% | 79.4% | – | – | – | – | – | Ki (5HT2A receptor [1]; [18]): 57.6 nM; EC50 (5HT2A receptor [2]; [19]): 115 nM; EC50 (5HT2A receptor [3]; [7]): 11.5 nM |
| Clc1cccc2c(C3=CCCN(Cc4ccccc4)C3)c[nH]c12 [Example 67, 3-(1-benzyl-1,2,5,6-tetrahydropyridin-3-yl)-7-chloro-1H-indole] | 90.2 nM | 756 nM | 46.6% | 48.8% | – | – | – | – | – | EC50 (5HT2A receptor [3]; [16]): 44.1 nM |
| CCCN1CCC=C(c2c[nH]c3c(C)cccc23)C1 [Example 155, 7-methyl-3-(1-propyl-1,2,5,6-tetrahydropyridin-3-yl)-1H-indole] | – | – | – | – | 532 nM | 34.4% | 539 nM | – | 68.5% | EC50 (5HT2A receptor [3]; [12]): 29.5 nM |
| FC(F)CN1CCC=C(c2n[nH]c3c(Cl)cccc23)C1 [Example 153, 7-chloro-3-(1-(2,2-difluoroethyl)-1,2,5,6-tetrahydropyridin-3-yl)-1H-indazole] | – | – | – | – | 1200 nM | 77.4% | 634 nM | 1240 nM | 83.9% | – |
| Cc1cc(F)cc2c(C34CNCC3C4)c[nH]c12 (stereo not shown) [Example 282, 3-(3-azabicyclo[3.1.0]hexan-1-yl)-5-fluoro-7-methyl-1H-indole] | – | – | – | – | 1280 nM | – | 257 nM | 165 nM | – | Emax (5HT2A receptor [2]; [20]): 44.8%; Emax (5HT2A receptor [3]; [21]): 96.8% |
| CN1CCC=C(c2n[nH]c3cccc(F)c23)C1 [Example 98, 4-fluoro-3-(1-methyl-1,2,5,6-tetrahydropyridin-3-yl)-1H-indazole] | 835 nM | 483 nM | 54% | 58.5% | – | – | – | – | – | EC50 (5HT2A receptor [3]; [16]): 105 nM |
| Fc1cccc2[nH]nc(C3=CCCNC3)c12 [Example 81, 4-fluoro-3-(1,2,5,6-tetrahydropyridin-3-yl)-1H-indazole] | 348 nM | 211 nM | 75.7% | 92.3% | – | – | – | – | – | EC50 (5HT2A receptor [3]; [7]): 26.5 nM |
| CN1CCC=C(c2n[nH]c3c(Cl)ccc(F)c23)C1 [Example 132, 7-chloro-4-fluoro-3-(1-methyl-1,2,5,6-tetrahydropyridin-3-yl)-1H-indazole] | – | – | – | – | – | 50.9% | – | – | 95.4% | Ki (5HT2A receptor [1]; [9]): 84.6 nM; EC50 (5HT2A receptor [2]; [17]): 93 nM; EC50 (5HT2A receptor [3]; [12]): 24 nM |
| COc1ccnc2[nH]cc(C3=CCCN(C)C3)c12 [Example 14, 4-methoxy-3-(1-methyl-1,2,5,6-tetrahydropyridin-3-yl)-1H-pyrrolo[2,3-b]pyridine] | – | – | 32.2% | 67.1% | – | – | – | – | – | Ki (5HT2A receptor [1]; [18]): 43 nM; EC50 (5HT2A receptor [2]; [19]): 74.1 nM; EC50 (5HT2A receptor [3]; [7]): 72.7 nM |
| Fc1cc(Cl)c2[nH]nc(N3CCNCC3)c2c1 [Example 232, 7-chloro-5-fluoro-3-(piperazin-1-yl)-1H-indazole] | – | – | – | – | 1970 nM | 29% | 1540 nM | 170 nM | 48.4% | – |
| OCCN1CCC=C(c2n[nH]c3c(Cl)cccc23)C1 [Example 168, 2-(5-(7-chloro-1H-indazol-3-yl)-3,6-dihydropyridin-1(2H)-yl)ethan-1-ol] | – | – | – | – | 1050 nM | 41.6% | 8640 nM | 183 nM | 68.2% | – |
| Fc1ccnc2[nH]cc(C3=CCCNC3)c12 [Example 119, 4-fluoro-3-(1,2,5,6-tetrahydropyridin-3-yl)-1H-pyrrolo[2,3-b]pyridine] | 844 nM | 1520 nM | 53.8% | 88.2% | – | – | – | – | – | EC50 (5HT2A receptor [3]; [16]): 193 nM |
| Clc1ccc2c(C3=CCCNC3)n[nH]c2c1 [Example 77, 6-chloro-3-(1,2,5,6-tetrahydropyridin-3-yl)-1H-indazole] | 439 nM | 430 nM | 76.7% | 93.9% | – | – | – | – | – | EC50 (5HT2A receptor [3]; [7]): 38.9 nM |
| N#Cc1cccc2c(C34CNCCC3C4)n[nH]c12 (stereo not shown) [Example 195, 3-(3-azabicyclo[4.1.0]heptan-1-yl)-1H-indazole-7-carbonitrile] | – | – | – | – | 1040 nM | 21.7% | > 10000 nM | 1090 nM | 77.4% | – |
